{
  "source": "patent US20050176691A1",
  "about": "“Combination therapy for the treatment of estrogen-sensitive disease” (priority 2000, published 2005)",
  "key": {"Pharmacokinetic profile": {"assay": "Pharmacokinetic profile", "type": "in vivo"}, "[1]": {"test_system": "estrogen receptor / enzyme (primary endocrine mechanism)", "assay": "Endocrine effect"}, "plasma protein": {"test_system": "plasma protein", "assay": "Distribution: plasma protein binding", "type": "in vitro ADME"}, "[2]": {"assay": "Other effects on ADME or PK (patient factors)", "conditions": "in vivo"}, "[3]": {"test_system": "primary metabolizing enzyme(s)", "assay": "Metabolism characteristics", "type": "in vitro ADME"}, "[4]": {"assay": "Absorption characteristics", "conditions": "in vivo"}, "[5]": {"assay": "Excretion characteristics", "conditions": "in vivo"}, "[6]": {"conditions": "during combination therapy with tamoxifen; persisted during months; cited from earlier work"}},
  "note": "Where two headings read alike, the source gives them in different places.",
  "data": [
    {"smiles": "CN(C)CCOc1ccc(/C(=C(/CCCl)c2ccccc2)c2ccccc2)cc1", "note": "[Toremifene, (Z)-2-[4-(4-chloro-1,2-diphenyl-1-butenyl)phenoxy]-N,N-dimethylethanamine]", "values": [
      {"measurement": "overall time to steady state", "setting": "Pharmacokinetic profile; in vivo", "value": "4-6 weeks"},
      {"measurement": "half-life", "setting": "Pharmacokinetic profile; in vivo, read-out: distribution t1/2 (time) (converted)", "value": 4, "unit": "h"},
      {"measurement": "half-life", "setting": "Pharmacokinetic profile; in vivo, read-out: elimination t1/2 (time) (converted)", "value": 120, "unit": "h"},
      {"measurement": "clearance", "setting": "Pharmacokinetic profile; in vivo, read-out: total clearance (volume/unit time) (converted)", "value": 83.3, "unit": "mL/min"},
      {"measurement": "Tmax", "setting": "Pharmacokinetic profile; plasma, oral", "value": 3, "unit": "h"},
      {"measurement": "direct inhibition of primary mechanism by combination drug", "setting": "[1]", "value": "no"},
      {"measurement": "feedback stimulation on combination drug's primary mechanism", "setting": "[1]", "value": "yes"},
      {"measurement": "principal plasma binding protein(s)", "setting": "plasma protein", "value": "albumin"},
      {"measurement": "fraction unbound", "setting": "plasma protein; plasma", "value": "< 0.005"},
      {"measurement": "effect of race of patient on ADME or PK", "setting": "[2]", "value": "unexpected"},
      {"measurement": "effect of sex of patient on ADME or PK", "setting": "[2]", "value": "no known effect"},
      {"measurement": "induction of primary metabolizing enzyme", "setting": "[3]", "value": "no"},
      {"measurement": "plasma levels affected by known inducers of cytochrome p-450 enzyme system", "setting": "[3]", "value": "yes"},
      {"measurement": "primary enzyme(s) of metabolism", "setting": "[3]", "value": "CYP3A4"},
      {"measurement": "primary metabolite active", "setting": "[3]", "value": "yes"},
      {"measurement": "significant pre-systemic metabolism", "setting": "[3]", "value": "no"},
      {"measurement": "Absorption: influenced by food", "setting": "[4]", "value": "no"},
      {"measurement": "Absorption: route", "setting": "[4]", "value": "oral"},
      {"measurement": "enterohepatic circulation", "setting": "[5]", "value": "yes"},
      {"measurement": "primary route of elimination", "setting": "[5]", "value": "fecal"},
      {"measurement": "enterohepatic circulation", "setting": "[5]; listed as toremifene", "value": "subject to enterohepatic circulation"}
    ]},
    {"smiles": "N#Cc1ccc(C(c2ccc(C#N)cc2)n2cncn2)cc1", "note": "[letrozole, 4,4′-(1H-1,2,4-triazol-1-ylmethylene)bis-benzonitrile]", "values": [
      {"measurement": "mean reduction of plasma levels of letrozole vs single agent letrozole", "setting": "[6]", "value": 37, "unit": "%"}
    ]}
  ]
}
